# Results as given in patent US9302991B2, “Arylamide derivatives as TTX-S blockers” (RaQualia Pharma Inc., priority 2010, dated 2016).
# Tests used:
# human Nav1.3 channels = target: T1, human Nav1.3 channels (Homo sapiens, UniProt Q9NY46); assay: FRET assay, human Nav1.3 (EFS on FDSS); format: cell-based; details: HEK293 cells expressing human Nav1.3, read-out: IC50 against Nav1.3
# T1 construct: expressed in transfected cells; host or cells: HEK293
# Outline: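 HEK293 cells expressing the channel, loaded with 10 microM CC2-DMPE then 15 microM DiSBAC2(3) plus 0.555 mM VABSC-1 in pH 7.4 HEPES buffer at room temperature. Membrane potential changes evoked by electrical field stimulation after compound addition; IC50 from 440 nm-normalized FRET ratios.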
# human Nav1.7 channels = target: T2, human Nav1.7 channels (Homo sapiens, UniProt Q15858); assay: FRET assay, human Nav1.7 (EFS on FDSS); format: cell-based; details: CHO cells expressing human Nav1.7, read-out: IC50 against Nav1.7
# T2 construct: expressed in transfected cells; host or cells: CHO
# Outline: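 CHO cells stably expressing the channel, loaded with CC2-DMPE (10 µM) then DiSBAC2(3) (15 µM) plus VABSC-1, in HEPES-buffered saline pH 7.4 at room temperature. Electrical field stimulation on FDSS; FRET ratio at 440 nm fitted for IC50.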
# T1 sequence (Q9NY46 whole entry): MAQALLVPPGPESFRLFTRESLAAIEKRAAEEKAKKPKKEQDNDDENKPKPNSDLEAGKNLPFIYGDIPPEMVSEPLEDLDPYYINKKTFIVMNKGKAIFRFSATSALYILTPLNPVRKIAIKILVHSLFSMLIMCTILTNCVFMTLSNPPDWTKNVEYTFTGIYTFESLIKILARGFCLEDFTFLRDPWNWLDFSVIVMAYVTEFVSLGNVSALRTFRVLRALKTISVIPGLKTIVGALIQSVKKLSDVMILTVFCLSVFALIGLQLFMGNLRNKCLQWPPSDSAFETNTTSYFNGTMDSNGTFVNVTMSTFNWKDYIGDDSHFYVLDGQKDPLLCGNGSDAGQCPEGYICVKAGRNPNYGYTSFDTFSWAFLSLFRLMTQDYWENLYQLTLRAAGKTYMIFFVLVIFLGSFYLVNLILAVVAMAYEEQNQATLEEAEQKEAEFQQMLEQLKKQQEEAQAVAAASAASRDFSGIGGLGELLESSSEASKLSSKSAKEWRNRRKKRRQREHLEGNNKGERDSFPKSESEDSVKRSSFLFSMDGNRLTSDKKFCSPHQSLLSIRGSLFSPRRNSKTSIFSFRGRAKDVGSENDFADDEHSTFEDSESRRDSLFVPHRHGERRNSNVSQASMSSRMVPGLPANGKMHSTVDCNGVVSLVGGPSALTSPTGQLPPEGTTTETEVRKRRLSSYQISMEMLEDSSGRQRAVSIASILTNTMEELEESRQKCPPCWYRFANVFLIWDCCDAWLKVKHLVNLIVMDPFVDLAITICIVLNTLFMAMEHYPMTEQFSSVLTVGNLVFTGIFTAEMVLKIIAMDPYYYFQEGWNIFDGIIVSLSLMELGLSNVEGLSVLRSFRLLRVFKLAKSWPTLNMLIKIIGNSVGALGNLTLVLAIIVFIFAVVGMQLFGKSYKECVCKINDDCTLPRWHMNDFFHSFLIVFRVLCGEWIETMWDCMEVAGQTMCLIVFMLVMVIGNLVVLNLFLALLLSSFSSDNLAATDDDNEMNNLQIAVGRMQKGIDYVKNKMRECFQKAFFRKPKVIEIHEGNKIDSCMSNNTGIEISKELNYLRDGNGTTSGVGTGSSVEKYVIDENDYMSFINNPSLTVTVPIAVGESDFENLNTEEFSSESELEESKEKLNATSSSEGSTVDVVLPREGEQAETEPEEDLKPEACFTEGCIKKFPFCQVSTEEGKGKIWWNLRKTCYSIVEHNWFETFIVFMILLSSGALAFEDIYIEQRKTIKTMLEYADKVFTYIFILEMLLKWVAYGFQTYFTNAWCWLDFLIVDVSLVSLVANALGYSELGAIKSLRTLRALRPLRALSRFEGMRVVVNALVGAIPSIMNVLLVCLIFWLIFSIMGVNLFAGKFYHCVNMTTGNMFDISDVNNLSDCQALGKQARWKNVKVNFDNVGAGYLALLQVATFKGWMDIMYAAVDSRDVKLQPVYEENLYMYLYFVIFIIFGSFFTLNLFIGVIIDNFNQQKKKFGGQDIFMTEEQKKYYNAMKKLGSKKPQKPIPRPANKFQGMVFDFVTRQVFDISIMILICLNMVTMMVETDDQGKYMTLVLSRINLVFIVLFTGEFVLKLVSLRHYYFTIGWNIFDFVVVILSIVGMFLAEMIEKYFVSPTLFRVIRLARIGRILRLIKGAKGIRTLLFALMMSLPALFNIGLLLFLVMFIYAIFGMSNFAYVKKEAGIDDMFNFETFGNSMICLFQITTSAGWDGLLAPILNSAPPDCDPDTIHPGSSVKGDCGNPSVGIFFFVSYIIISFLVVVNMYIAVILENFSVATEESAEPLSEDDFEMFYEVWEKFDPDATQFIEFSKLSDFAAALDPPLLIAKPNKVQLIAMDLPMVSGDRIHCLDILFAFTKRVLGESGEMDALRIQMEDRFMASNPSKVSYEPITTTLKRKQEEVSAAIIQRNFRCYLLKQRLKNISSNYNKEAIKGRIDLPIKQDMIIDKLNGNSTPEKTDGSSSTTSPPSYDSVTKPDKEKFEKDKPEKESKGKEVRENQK
# T2 sequence (Q15858 whole entry): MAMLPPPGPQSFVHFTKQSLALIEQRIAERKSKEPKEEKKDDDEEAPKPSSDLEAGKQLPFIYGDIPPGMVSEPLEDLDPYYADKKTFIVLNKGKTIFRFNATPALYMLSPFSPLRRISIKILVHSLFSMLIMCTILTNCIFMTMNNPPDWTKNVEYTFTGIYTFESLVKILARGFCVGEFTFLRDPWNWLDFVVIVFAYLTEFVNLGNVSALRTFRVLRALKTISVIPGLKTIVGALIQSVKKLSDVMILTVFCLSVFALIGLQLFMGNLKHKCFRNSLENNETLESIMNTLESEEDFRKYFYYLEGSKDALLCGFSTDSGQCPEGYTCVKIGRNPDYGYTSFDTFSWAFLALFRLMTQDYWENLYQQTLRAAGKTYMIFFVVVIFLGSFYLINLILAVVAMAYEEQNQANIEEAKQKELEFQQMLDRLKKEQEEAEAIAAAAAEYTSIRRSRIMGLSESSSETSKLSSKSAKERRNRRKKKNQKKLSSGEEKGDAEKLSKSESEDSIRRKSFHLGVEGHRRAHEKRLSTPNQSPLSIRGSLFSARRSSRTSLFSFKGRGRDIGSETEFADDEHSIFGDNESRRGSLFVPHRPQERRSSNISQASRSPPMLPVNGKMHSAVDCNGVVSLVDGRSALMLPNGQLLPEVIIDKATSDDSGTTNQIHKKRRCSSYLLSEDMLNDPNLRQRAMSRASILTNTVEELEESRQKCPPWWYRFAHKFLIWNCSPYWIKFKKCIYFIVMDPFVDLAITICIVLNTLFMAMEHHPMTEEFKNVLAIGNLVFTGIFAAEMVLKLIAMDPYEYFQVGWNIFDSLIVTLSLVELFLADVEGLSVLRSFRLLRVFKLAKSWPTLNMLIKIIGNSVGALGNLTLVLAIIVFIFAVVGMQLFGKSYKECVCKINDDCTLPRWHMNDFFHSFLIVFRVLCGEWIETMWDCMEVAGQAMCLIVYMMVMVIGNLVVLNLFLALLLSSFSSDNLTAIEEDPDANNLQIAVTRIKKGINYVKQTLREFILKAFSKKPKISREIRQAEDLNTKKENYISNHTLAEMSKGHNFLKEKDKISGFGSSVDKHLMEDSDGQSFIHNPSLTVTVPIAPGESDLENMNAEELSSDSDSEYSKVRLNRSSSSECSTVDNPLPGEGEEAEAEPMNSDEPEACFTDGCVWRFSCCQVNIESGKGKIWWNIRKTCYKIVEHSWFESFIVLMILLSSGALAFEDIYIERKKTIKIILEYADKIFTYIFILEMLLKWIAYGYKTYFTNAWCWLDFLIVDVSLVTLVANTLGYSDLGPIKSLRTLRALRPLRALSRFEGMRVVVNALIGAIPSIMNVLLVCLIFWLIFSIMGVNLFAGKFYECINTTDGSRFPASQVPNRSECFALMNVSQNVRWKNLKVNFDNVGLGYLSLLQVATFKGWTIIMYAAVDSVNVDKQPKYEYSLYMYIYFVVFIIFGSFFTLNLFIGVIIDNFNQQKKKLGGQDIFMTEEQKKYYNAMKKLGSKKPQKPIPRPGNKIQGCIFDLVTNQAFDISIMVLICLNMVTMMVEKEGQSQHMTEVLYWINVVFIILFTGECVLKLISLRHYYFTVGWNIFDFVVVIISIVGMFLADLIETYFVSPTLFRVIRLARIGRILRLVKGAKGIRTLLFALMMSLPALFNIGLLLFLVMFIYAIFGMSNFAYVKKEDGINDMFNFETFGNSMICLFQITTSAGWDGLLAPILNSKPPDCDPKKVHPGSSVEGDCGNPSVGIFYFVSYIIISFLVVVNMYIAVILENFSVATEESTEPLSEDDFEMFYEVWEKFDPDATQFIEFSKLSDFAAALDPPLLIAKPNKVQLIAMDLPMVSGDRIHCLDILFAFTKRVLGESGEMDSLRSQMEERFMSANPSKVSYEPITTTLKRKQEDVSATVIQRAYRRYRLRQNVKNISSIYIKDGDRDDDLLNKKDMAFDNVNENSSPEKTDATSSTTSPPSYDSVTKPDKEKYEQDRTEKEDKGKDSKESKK
IC50 (human Nav1.3 channels),IC50 (human Nav1.7 channels),Structure (SMILES)
< 1000 nM,< 1000 nM,"COc1cc(CNC(=O)c2cc(C)nc(NC(=O)C(C)C)n2)cnc1OCC(F)(F)F [Example 443, 2-isobutyramido-N-((5-methoxy-6-(2,2,2-trifluoroethoxy)pyridin-3-yl)methyl)-6-methylpyrimidine-4-carboxamide]"
< 1000 nM,< 1000 nM,"Cc1cc(C(=O)NCc2ccc(OCC(F)(F)F)nc2)cc(NC(=O)C(C)C)n1 [Example 483, 2-isobutyramido-6-methyl-N-((6-(2,2,2-trifluoroethoxy)pyridin-3-yl)methyl)isonicotinamide]"
< 1000 nM,< 1000 nM,"CC(=O)Nc1cc(C(=O)NCc2cnc(OCC(F)(F)F)c(Br)c2)cc(C)n1 [Example 899, 2-acetamido-N-((5-bromo-6-(2,2,2-trifluoroethoxy)pyridin-3-yl)methyl)-6-methylisonicotinamide]"
